Read-outs that look alike come from different tables or passages of the source.
Test system: P. falciparum 3D7
Test: P. falciparum drug susceptibility assay (3D7)
Format: cell-based, Plasmodium falciparum
Protocol: Parasites were grown as previously described in Mallari, J. P., Guiguemde, W. A., and Guy, R. K., Antimalarial activity of thiosemicarbazones and purine derived nitriles, Bioorg Med Chem Lett 19 (13), 3546 (2009). […] DMSO inhibitor stock solutions were pin-transferred (V&P Scientific) into the assay plate and background fluorescence was measured in both relevant channels (485 nm /535 nm, 612 nm /665 nm) in an Envision plate reader (PerkinElmer). Then 20 μl of a synchronized culture suspension (1% rings, 10% hematocrit) were added per well, thus making a final hematocrit and parasitemia of 5% and 1% respectively. Assay plates were incubated for 72 h and parasitemia was determined based on a modified protocol. (Smilkstein, M. et al., Simple and inexpensive fluorescence-based technique for high-throughput antimalarial drug screening. Antimicrob Agents Chemother 48 (5), 1803 (2004)). Briefly, 5 μl of mixed DNA dye solution in RPMI (5X SYBR Green I, 1 μM YOYO-3, 1% v/v Triton X-100, 1 mg/ml saponin) were added per well, assay plates were shaken for 30 s at 2000 rpm, incubated in the dark for 4 h, then read as previously described.

[1] = Plasmodium falciparum, 3D7 strain, racemate unless indicated, read-out: 3D7_EC50

SMILES | EC50 [1] | EC50 (separated enantiomers, assayed as described in 4a, listed as 2 l, read-out: Potency (nM, 3D7 strain))
CC(C)CN1C(=O)c2ccccc2[C@H](C(=O)Nc2cc(Cl)cc(C#N)c2)[C@H]1c1cnn(C)c1 (racemic) [Example 9, N-(3-chloro-5-cyanophenyl)-2-isobutyl-3-(1-methyl-1H-pyrazol-4-yl)-1-oxo-1,2,3,4-tetrahydroisoquinoline-4-carboxamide] | 8 nM | –
N#Cc1cc(Cl)cc(NC(=O)[C@H]2c3ccccc3C(=O)N(CC(F)(F)F)[C@@H]2c2cccnc2)c1 (racemic) [Example 12, N-(3-chloro-5-cyanophenyl)-1-oxo-3-(pyridin-3-yl)-2-(2,2,2-trifluoroethyl)-1,2,3,4-tetrahydroisoquinoline-4-carboxamide] | 36 nM | –
CC(C)CN1C(=O)c2ccccc2[C@H](C(=O)Nc2cccc(C#N)c2)[C@H]1c1cn[nH]c1 (racemic) [Example 13, N-(3-cyanophenyl)-2-isobutyl-1-oxo-3-(1H-pyrazol-4-yl)-1,2,3,4-tetrahydroisoquinoline-4-carboxamide] | 7 nM | –
CC(C)CN1C(=O)c2ccccc2[C@H](C(=O)Nc2cc(F)cc(C#N)c2)[C@H]1c1cn[nH]c1 (racemic) [Example 19, N-(3-cyano-5-fluorophenyl)-2-isobutyl-1-oxo-3-(1H-pyrazol-4-yl)-1,2,3,4-tetrahydroisoquinoline-4-carboxamide] | 4 nM | –
Cn1cc([C@@H]2[C@@H](C(=O)Nc3ccc(F)c(C#N)c3)c3ccccc3C(=O)N2CC(F)(F)F)cn1 (racemic) [Example 4, N-(3-cyano-4-fluorophenyl)-3-(1-methyl-1H-pyrazol-4-yl)-1-oxo-2-(2,2,2-trifluoroethyl)-1,2,3,4-tetrahydroisoquinoline-4-carboxamide] | 24 nM | –
N#Cc1cc(NC(=O)C2c3ccccc3C(=O)N(CC(F)(F)F)C2c2cn[nH]c2)ccc1F (single isomer, unassigned) [Example 2 l-isomer] | – | 303 nM
N#Cc1cccc(NC(=O)[C@H]2c3ccccc3C(=O)N(CC(F)(F)F)[C@@H]2c2cn[nH]c2)c1 (racemic) [Example 14, N-(3-cyanophenyl)-1-oxo-3-(1H-pyrazol-4-yl)-2-(2,2,2-trifluoroethyl)-1,2,3,4-tetrahydroisoquinoline-4-carboxamide] | 30 nM | –
N#Cc1cc(NC(=O)[C@H]2c3ccccc3C(=O)N(CC(F)(F)F)[C@@H]2c2cn[nH]c2)ccc1F (racemic) [Example 2, N-(3-cyano-4-fluorophenyl)-1-oxo-3-(1H-pyrazol-4-yl)-2-(2,2,2-trifluoroethyl)-1,2,3,4-tetrahydroisoquinoline-4-carboxamide] | 41 nM | –

Further lines, results first:

EC50 [1] | EC50 (separated enantiomers, assayed as described in 4a, listed as 2 l, read-out: Potency (nM, 3D7 strain)) | SMILES
61 nM | – | O=C(Nc1cc(F)cc(OC(F)(F)F)c1)[C@H]1c2ccccc2C(=O)N(CC(F)(F)F)[C@@H]1c1cn[nH]c1 (racemic) [Example 38, N-(3-fluoro-5-(trifluoromethoxy)phenyl)-1-oxo-3-(1H-pyrazol-4-yl)-2-(2,2,2-trifluoroethyl)-1,2,3,4-tetrahydroisoquinoline-4-carboxamide]
38 nM | – | N#Cc1cc(F)cc(NC(=O)[C@H]2c3ccccc3C(=O)N(CC(F)(F)F)[C@@H]2c2cccnc2)c1 (racemic) [Example 24, N-(3-cyano-5-fluorophenyl)-1-oxo-3-(pyridin-3-yl)-2-(2,2,2-trifluoroethyl)-1,2,3,4-tetrahydroisoquinoline-4-carboxamide]
89 nM | – | O=C(Nc1ccc(F)c(OC(F)(F)F)c1)[C@H]1c2ccccc2C(=O)N(CC(F)(F)F)[C@@H]1c1cccnc1 (racemic) [Example 36, N-(4-fluoro-3-(trifluoromethoxy)phenyl)-1-oxo-3-(pyridin-3-yl)-2-(2,2,2-trifluoroethyl)-1,2,3,4-tetrahydroisoquinoline-4-carboxamide]
7 nM | – | CC(C)CN1C(=O)c2ccc(F)cc2[C@H](C(=O)Nc2cccc(C#N)c2)[C@H]1c1cnn(C)c1 (racemic) [Example 47, N-(3-cyanophenyl)-6-fluoro-2-isobutyl-3-(1-methyl-1H-pyrazol-4-yl)-1-oxo-1,2,3,4-tetrahydroisoquinoline-4-carboxamide]
9 nM | – | N#Cc1cc(F)cc(NC(=O)[C@H]2c3ccccc3C(=O)N(CC(F)(F)F)[C@@H]2c2cn[nH]c2)c1 (racemic) [Example 20, N-(3-cyano-5-fluorophenyl)-1-oxo-3-(1H-pyrazol-4-yl)-2-(2,2,2-trifluoroethyl)-1,2,3,4-tetrahydroisoquinoline-4-carboxamide]
20 nM | – | CC(C)CN1C(=O)c2ccccc2[C@H](C(=O)Nc2cc(F)cc(C#N)c2)[C@H]1c1cccnc1 (racemic) [Example 23, N-(3-cyano-5-fluorophenyl)-2-isobutyl-1-oxo-3-(pyridin-3-yl)-1,2,3,4-tetrahydroisoquinoline-4-carboxamide]
19 nM | – | O=C(Nc1cccc(OC(F)(F)F)c1)[C@H]1c2ccccc2C(=O)N(CC(F)(F)F)[C@@H]1c1cn[nH]c1 (racemic) [Example 26, 1-oxo-3-(1H-pyrazol-4-yl)-2-(2,2,2-trifluorocthyl)-N-(3-(trifluoromethoxy)phenyl)-1,2,3,4-tetrahydroisoquinoline-4-carboxamide]
11 nM | – | N#Cc1ccc([C@@H]2[C@@H](C(=O)Nc3ccc(F)c(C#N)c3)c3ccccc3C(=O)N2CC2CC2)s1 (racemic) [Example 54, N-(3-cyano-4-fluorophenyl)-3-(5-cyanothiophen-2-yl)-2-(cyclopropylmethyl)-1-oxo-1,2,3,4-tetrahydroisoquinoline-4-carboxamide]
144 nM | – | O=C(Nc1cc(F)cc(OC(F)(F)F)c1)[C@H]1c2ccccc2C(=O)N(CC(F)(F)F)[C@@H]1c1cccnc1 (racemic) [Example 42, N-(3-fluoro-5-(trifluoromethoxy)phenyl)-1-oxo-3-(pyridin-3-yl)-2-(2,2,2-trifluoroethyl)-1,2,3,4-tetrahydroisoquinoline-4-carboxamide]
7 nM | – | N#Cc1cc(NC(=O)[C@H]2c3cc(F)c(F)cc3C(=O)N(CC(F)(F)F)[C@@H]2c2cn[nH]c2)ccc1F (racemic) [Example 59]
3 nM | – | CC(C)CN1C(=O)c2cc(F)ccc2[C@H](C(=O)Nc2cc(Cl)cc(C#N)c2)[C@H]1c1cnn(C)c1 (racemic) [Example 46, N-(3-chloro-5-cyanophenyl)-7-fluoro-2-isobutyl-3-(1-methyl-1H-pyrazol-4-yl)-1-oxo-1,2,3,4-tetrahydroisoquinoline-4-carboxamide]

Reference: US9416124B2, “Substituted 2-alkyl-1-OXO-N-phenyl-3-heteroaryl-1,2,3,4-tetrahydroisoquinoline-4-carboxamides for antimalarial therapies” (ST. JUDE CHILDREN'S RESEARCH HOSPITAL, priority 2011, dated 2016)
